Values quoted from earlier work in publication PMC9762682, “Tocotrienols: Exciting Biological and Pharmacological Properties of Tocotrienols and Naturally Occurring Compounds, Part II” (Annals of clinical case reports, 2022).
Where two headings read alike, the source gives them in different places. Marks after values point to notes of the source that are not given here.

Columns and labels:
[1] = set-up: method as in ref 14 = [14]; PMID 27493840; doi:10.4172/2155-9880.1000434; 14. Qureshi AA , Khan DA , Saleem S , Silswal N , Trias AM , Tan B , Pharmacokinetics and bioavailability of Annatto δ-tocotrienol in healthy fed subjects . J Clin Exp Cardiol . 2015; 6 : 11 . 10.417; details: for time of appearance in the plasma: after δ-tocotrienol administration to well-fed subjects; for Elimination of Half-life time (t1/2) / Elimination rate constant (ke) / Plasma Peak Concentration (Cmax) / Time to achieve plasma peak (Tmax): healthy fed subjects
[2] = set-up: method as in ref 16 = [16]; PMID 27493840; doi:10.4172/2155-9880.1000434; 16. Qureshi AA , Khan DA , Silswal N , Saleem S , Qureshi N . Evaluation of pharmacokinetics and bioavailability of higher doses of δ-tocotrienol in healthy fed humans . J Clin Exp Cardiol . 2016; 7
[3] = plasma tocol after single 125 mg δ-tocotrienol dose
[4] = plasma tocol after single 250 mg δ-tocotrienol dose
[5] = plasma tocol after single 500 mg δ-tocotrienol dose
[6] = 0 Hr., single dose 750 mg δ-tocotrienol
[7] = 0 Hr., single dose 1000 mg δ-tocotrienol
[8] = 1 hr., single dose 750 mg δ-tocotrienol
[9] = 1 hr., single dose 1000 mg δ-tocotrienol
[10] = 2 hr., single dose 750 mg δ-tocotrienol
[11] = 2 hr., single dose 1000 mg δ-tocotrienol
[12] = 4 hr., single dose 750 mg δ-tocotrienol
[13] = 4 hr., single dose 1000 mg δ-tocotrienol
[14] = 6 hr., single dose 750 mg δ-tocotrienol
[15] = 6 hr., single dose 1000 mg δ-tocotrienol
[16] = 8 hr., single dose 750 mg δ-tocotrienol
[17] = 8 hr., single dose 1000 mg δ-tocotrienol
[18] = single dose 750 mg δ-tocotrienol
[19] = single dose 1000 mg δ-tocotrienol
[20] = plasma tocol after single dose 750 mg δ-tocotrienol
[21] = plasma tocol after single dose 1000 mg δ-tocotrienol

Compound | time of appearance in the plasma [1] [h] | Elimination of Half-life time (t1/2) [1, 3] | Elimination rate constant (ke) [1, 3] | Plasma Peak Concentration (Cmax) [1, 3] | Time to achieve plasma peak (Tmax) [1, 3] [h] | Elimination of Half-life time (t1/2) [1, 4] | Elimination rate constant (ke) [1, 4] | Plasma Peak Concentration (Cmax) [1, 4] | Elimination of Half-life time (t1/2) [1, 5] | Elimination rate constant (ke) [1, 5] | Plasma Peak Concentration (Cmax) [1, 5] | Time to achieve plasma peak (Tmax) [1, 5] [h] | plasma tocol level [2, 6] [ng/mL] | plasma tocol level [2, 7] [ng/mL] | plasma tocol level [2, 8] [ng/mL] | plasma tocol level [2, 9] [ng/mL] | plasma tocol level [2, 10] [ng/mL] | plasma tocol level [2, 11] [ng/mL] | plasma tocol level [2, 12] [ng/mL] | plasma tocol level [2, 13] [ng/mL] | also measured
Cc1cc(O)c(C)c2c1O[C@](C)(CCC[C@H](C)CCC[C@H](C)CCCC(C)C)CC2 [β-Tocopherol] | > 2 | 1.82 ± 0.23 h | 1.247 ± 0.073^a h-1 | 956.09 ± 70.06^a ng/mL | 5.18 ± 1.17 | 3.97 ± 0.66^a h | 0.489 ± 0.063^b h-1 | 949.91 ± 126.37^a ng/mL | 3.27 ± 0.61^a h | 0.275 ± 0.023^c h-1 | 1045.09 ± 147.81^a ng/mL | 3.09 ± 0.32 | 542 ± 11 | 639 ± 38 | 525 ± 54 | 763 ± 69 | 599 ± 14 | 1025 ± 58 | 704 ± 29 | 1525 ± 32 | Time to achieve plasma peak (Tmax) [1, 4]: 3.09 ± 0.30 h; plasma tocol level [2, 14]: 621 ± 28 ng/mL; plasma tocol level [2, 15]: 717 ± 56 ng/mL; plasma tocol level [2, 16]: 278 ± 16 ng/mL; plasma tocol level [2, 17]: 516 ± 51 ng/mL; Total tocols (sum of 0-8 h) [2, 18]: 3269 ng/mL; Total tocols (sum of 0-8 h) [2, 19]: 5185 ng/mL
CC(C)=CCC/C(C)=C/CC/C(C)=C/CC[C@]1(C)CCc2c(C)c(O)cc(C)c2O1 [β-Tocotrienol] | > 2 | 3.92 ± 0.86^a h | 0.542 ± 0.062^a h-1 | 979.00 ± 79.45^a ng/mL | 4.00 | 3.90 ± 0.79^a h | 0.404 ± 0.032^b h-1 | 1083.73 ± 82.26^b ng/mL | 4.39 ± 0.63^a h | 0.192 ± 0.014^c h-1 | 1279.00 ± 116.44^c ng/mL | 3.00 | 1145 ± 61 | 1220 ± 93 | 1565 ± 62 | 1516 ± 21 | 1568 ± 77 | 1830 ± 91 | 1885 ± 91 | 1937 ± 72 | plasma tocol level [2, 14]: 1538 ± 22 ng/mL; plasma tocol level [2, 15]: 1315 ± 48 ng/mL; plasma tocol level [2, 16]: 137 ± 102 ng/mL; plasma tocol level [2, 17]: 519 ± 20 ng/mL; Area Under the Curve-t0 - t8 (AUC0-8) [2, 20]: 11473.96 ± 316.15^c ng/ml; Area Under the Curve-t0 - ∞ (AUC0-∞) [2, 20]: 11709.23 ± 459.66^c ng/ml; Elimination of Half-life time (t1/2) [2, 20]: 1.02 ± 0.34^c h; Elimination rate constant (ke) [2, 20]: 0.681 ± 0.103^b h-1; Peak Plasma Concentration (Cmax) [2, 20]: 1885.20 ± 90.95^c ng/ml; Time to achieve plasma peak (Tmax) [2, 20]: 4.00 ^a h; Elimination of Half-life time (t1/2) [2, 21]: 2.11 ± 0.03^b h; Elimination rate constant (ke) [2, 21]: 0.327 ± 0.167^a h-1; Peak Plasma Concentration (Cmax) [2, 21]: 1948.13 ± 66.43^c ng/ml; Time to achieve plasma peak (Tmax) [2, 21]: 3.33 ± 1.16^a h; Total tocols (sum of 0-8 h) [2, 18]: 7838 ng/mL; Total tocols (sum of 0-8 h) [2, 19]: 8337 ng/mL
Cc1c(O)cc2c(c1C)O[C@](C)(CCC[C@H](C)CCC[C@H](C)CCCC(C)C)CC2 [γ-Tocopherol] | > 2 | 2.45 ± 0.37^a h | 0.184 ± 0.121^a h-1 | 507.64 ± 24.68^a ng/mL | 5.46 ± 0.93 | 5.17 ± 1.06^b h | 0.146 ± 0.013^b h-1 | 643.36 ± 37.26^b ng/mL | 4.99 ± 0.88^b h | 0.126 ± 0.026^a h-1 | 605.64 ± 48.17^b ng/mL | 2.82 ± 0.41 | 319 ± 30 | 330 ± 34 | 404 ± 44 | 412 ± 17 | 433 ± 26 | 457 ± 33 | 547 ± 12 | 589 ± 39 | Time to achieve plasma peak (Tmax) [1, 4]: 3.00 h; plasma tocol level [2, 14]: 273 ± 67 ng/mL; plasma tocol level [2, 15]: 241 ± 28 ng/mL; plasma tocol level [2, 16]: 212 ± 16 ng/mL; plasma tocol level [2, 17]: 183 ± 14 ng/mL; Total tocols (sum of 0-8 h) [2, 18]: 2188 ng/mL; Total tocols (sum of 0-8 h) ([2]; single dose 750 mg δ-tocotrienol, listed as γ-tocopherol): 5544 ng/mL; Total tocols (sum of 0-8 h) [2, 19]: 2212 ng/mL
